Reference: patent US5801144A, “Use of a compound for the manufacture of a medicament for the treatment of HIV infection” (priority 1992, dated 1998)
“Also recorded” adds a separate entry of the source. Read-outs that look alike come from different tables or passages of the source.

Columns and labels:
NDK strain of HIV-1 = test: Giant cell assay: co-cultivation of HIV-1 chronically infected Molt 4 cells with non-infected Molt 4 cells; assay type: cell-based
Description: Method: A clone of the leukaemia T-cell line Molt 4, which expresses a very high level of CD4, was selected. This was infected with the highly cytopathic NDK strain of HIV-1^6 and a clone which is chronically infected with the virus but which readily replicates was selected. When these HIV-infected cells w ere co-cultivated with non-infected Molt 4 cells at a ratio of 100 non-infected:1 infected cell, very large giant cells were formed within 24 hours.
(§1) The effects of serum from healthy HIV-1 infected individuals and AIDS patients on giant cell formation was also examined. In addition the level of cytotoxicity and anti-HIV-1 activity of these substances was tested in an anti-HIV assay system which has been previously described^7. This enabled us to establish the anti-viral activity and cytotoxicity in parallel and to compare it to the effects of AZT on virus inhibition and cell division.

HIV-2 = test: Giant cell / cytopathic effect on co-cultivation of HIV-2 chronically infected cells with uninfected cells; assay type: cell-based; conditions: co-cultivation in the presence of the drugs, within 24 hours
HIV-1 [1] = test: Anti-HIV assay system (HIV-1 replication, cytotoxicity in parallel); assay type: cell-based
Description: as §1

[2] = test system: non-infected Molt 4 cells; test: Growth-rate of non-infected T-cells; assay type: cell-based
Description: (§2) Method: Molt 4 cells and the clone of the same cells, chronically infected with HIV-1, were seeded separately at an approximate concentration of 5×10^4 cells/ml. Five separate cultures of each of the two cell populations were seeded. […] At 24 hour intervals samples were taken for cell counting. Feeding with or without the corresponding chemical was done after the fourth day. AZT was also used in parallel.

[3] = test system: Molt 4 cells chronically infected with HIV-1; test: Growth-rate of chronically infected T-cells; assay type: cell-based
Description: as §2

CD4 [4] = test: CD4 expression on non-infected cells (flow cytometry); assay type: cell-based; conditions: 1 and 4 μg/ml, 3 days
Description: (§3) Each cell preparation was kept separately at a concentration of 1 and 4 μg/ml of each drug for 3 days. Infected and uninfected cells were suspended at a concentration of 10^6 /ml in phosphate buffered saline (PBS) containing 0.1% sodium azide. Triplicate aliquots of 100 μl were incubated separately with 20 μl Leu-3a (FITC) (Ortho (Becton Dickinson UK Ltd) or with 10 μl OKT4a (FITC) Diagnostic Systems). After 20 min at 22° C. the cells were washed twice with PBS and resuspended in 0.51% paraformaldehyde/PBS (Sigma). The preparations were fixed overnight at 4° C. and subsequently analysed by flow cytometry (FACScan, Becton Dickinson UK Ltd). The median channel fluorescence was recorded for each sample.

CD4 [5] = test: CD4 expression on HIV-1 chronically infected cells (flow cytometry); assay type: cell-based; conditions: 1 and 4 μg/ml, 3 days
Description: as §3

HIV-1 [6] = conditions: drug-containing medium replaced with growth medium alone, one week
Description: Method: Culture fluid was collected from:
1. chronically infected cells grown in growth medium;
3. chronically infected cells grown in 10 μg/ml of FK506 and for 1 week after removal of compound;
Each culture was titrated at serial ten-fold dilutions. Each dilution was used to infect Molt 4 cells in duplicate. The end point was recorded after 10 days.

SMILES: C=CC[C@@H]1/C=C(\C)C[C@H](C)C[C@H](OC)[C@H]2O[C@@](O)(C(=O)C(=O)N3CCCC[C@H]3C(=O)O[C@H](/C(C)=C/[C@@H]3CC[C@@H](O)[C@H](OC)C3)[C@H](C)[C@@H](O)CC1=O)[C@H](C)C[C@@H]2OC [FK506, 16-Allyl-1, 14-dihydroxy-12-[2-(4-hydroxy-3-methoxycyclohexyl)-1-methylvinyl]-23,25-dimethoxy-13,19,21,27-tetramethyl-11,28-dioxa-4-azatricyclo-[22,3,1,0^4,9]octacos-18-ene-2,3,10,16-tetrone]
- delay of cytopathic effect / giant cell formation (anti-HIV-1 activity) (NDK strain of HIV-1; HIV-1, co-cultivation in the presence of the drugs, within 24 hours): delay of the cytopathic effect; also recorded: delay in the formation of giant cells
- giant cell formation after drug pre-treatment of infected cells (NDK strain of HIV-1; chronically infected cells cultured one week with drug, washed, co-cultivated without drug): a few small giant cells could be seen during the first 24 hours
- onset of cytopathic effects, in particular giant cell formation (NDK strain of HIV-1; chronically infected cells grown with drug for five days and then washed): inhibition of and a delay in the onset of cytopathic effects
- giant cell formation (NDK strain of HIV-1; co-cultured in the presence of 10 μg/ml, examined after 24 hours): only a few small giant cells
- delay of cytopathic effect / giant cell formation (anti-HIV-2 activity) (HIV-2): delay of the cytopathic effect; also recorded: delay in the formation of giant cells
- HIV-1 replication at 1 μg (HIV-1 [1]; at 1 μg): only a partial decrease
- antiviral activity at non-toxic concentrations (HIV-1 [1]; non-toxic concentrations): marginal antiviral activity
- inhibition of HIV-1 replication (comparison with AZT) (HIV-1 [1]; various concentrations, FIG. 1): far lower than that of AZT
- cell division of uninfected cells at 4 μg/ml [2]: did not appear to slow cell division
- growth of uninfected cells, first five days [2]: did not affect the growth of uninfected cells
- number of uninfected cells after day five at 10 μg/ml [2]: only a marginal increase in the number of cells
- effect on growth / replication of HIV-1 chronically infected cells [3]: inhibited the replication; also recorded: inhibit the growth of the chronically infected cells
- cell division of chronically infected cells at 4 μg/ml ([3]; 4 μg/ml): significant reduction in cell division
- number of chronically infected cells at 10 μg/ml ([3]; 10 μg/ml, after a week in culture): only a marginal increase in the number of cells
- effect on growth / replication of HIV-1 chronically infected cells ([3]; listed as FK): significantly inhibited the replication
- CD4 expression on uninfected Molt 4 cells (CD4 [4]): expressed a high level of CD4
- CD4 expression on chronically HIV-1 infected Molt 4 cells (CD4 [5]): does not seem to be affected
- production of infectious HIV-1 after drug removal (HIV-1 [6]): increase in the production of infectious HIV-1 to the levels which preceded the drug treatment
